Read-outs that look alike come from different tables or passages of the source.

Common to all, as to type: cell-based
In assay [1] the target is T1, GluN1-GluN2B NMDAR subtype (Homo sapiens, UniProt Q05586+Q13224).
T1 construct: host or cells: NR1-2B-CHO cells, constitutive expression
Put plainly: FLIPR/Ca2+ assay, NMDAR GluN1-GluN2B subtype in CHO cells. Here is the method: (§1) These compounds were assessed for their effects on specific heterodimeric NMDAR subtypes stably overexpressed in Chinese Hamster Ovary (CHO) cells. The subtypes tested included GluN1-GluN2A, GluN1-GluN2B, GluN1-GluN2C, and GluN1-GluN2D. CHO cells expressing each of the four NMDAR subtypes were incubated with 10 μM L-glutamate, a concentration known to elicit maximal Ca^2+ influx, serving as the stimulus. Intracellular Ca^2+ levels were subsequently measured to determine the extent of NMDAR activation.
(§2) Assay buffer composition was 145 mM NaCl, 5 mM KCl, 2 mM CaCl2, 1 g/Liter D-(+)-glucose, and 20 mM HEPES (pH 7.3 adjusted with NaOH). Cells were plated at a density of 15.000/well in 384 black/clear bottom plates. […] Cells were kept at 30 °C in 5% CO2 incubator for 24 h. Cells were preloaded for 1 h with 2 μM Fluo-4 Ca^2+-sensitive probe, simultaneously with 2.5 mM probenecid, an inhibitor of nonspecific anion transport, and 500 μM ketamine to avoid cytotoxicity. […] Intracellular Ca^2+ level was monitored by FLIPR (excitation wavelength at 470–495 nm, emission wavelength at 515–575 nm) for 10 s before and 5 min after the addition of test items. All test items, including L-glutamate and glycine, were added simultaneously. […] FLIPR data were normalized as 100%, in the presence of 10 μM L-glutamate and 10 μM glycine, while as 0%, in the presence of assay buffer. […] Then, data were normalized by Excel 2013 (Microsoft Office) software, using wells added with 10 μM L-glutamate plus 10 μM glycine (column 23) as high control, and wells added with assay buffer only (column 24) as low control. To assess plate quality, Z′ calculations were performed in Excel. Z′ was calculated according to following equation: Z′ = 1–3(σh + σl)/|μh – μL| where μ and σ are the means and the standard deviations of the means of high (h) and low (l) controls, respectively. Compound concentration–response curves were plotted by Prism 8 GraphPad software, in the different experimental conditions (see Supporting Information). Data were analyzed using least-squares regression fitting, to fit data to a standard four parameters logistic equation using GraphPad Prism10. This regression fitting allowed the calculation of pIC50 and the corresponding SEM.

For assay [2], the target named is GluN1-GluN2D NMDAR subtype (Homo sapiens, UniProt O15399+Q05586). Put plainly: FLIPR/Ca2+ assay, NMDAR GluN1-GluN2D subtype in CHO cells. Here is the method: as §1, §2
The target of assay [3] is GluN1-GluN2A NMDAR subtype (Homo sapiens, UniProt Q05586+Q12879). Briefly: FLIPR/Ca2+ assay, NMDAR GluN1-GluN2A subtype in CHO cells. The method, then:
as §1, §2

Assay [4] has as its target GluN1-GluN2C NMDAR subtype (Homo sapiens, UniProt Q05586+Q14957). Put plainly: FLIPR/Ca2+ assay, NMDAR GluN1-GluN2C subtype in CHO cells. The method, then: as §1, §2
Where [5] appears, read: CHO cells, 10 μM L-glutamate and 10 μM glycine, n.d. = 50% of inhibition could not be reached at the highest concentration used.
The mark [6] stands for this setting: CHO cells, 10 μM L-glutamate and 10 μM glycine, n.d. = 50% of inhibition could not be reached at the highest concentration used, read-out: pIC50 (mean ± SEM) GluN1-GluN2B (converted).
Where [7] appears, read: CHO cells, 10 μM L-glutamate and 10 μM glycine, n.d. = 50% of inhibition could not be reached at the highest concentration used, read-out: pIC50 (mean ± SEM) GluN1-GluN2D (converted).
[8] abbreviates: CHO cells, 10 μM L-glutamate and 10 μM glycine, n.d. = 50% of inhibition could not be reached at the highest concentration used, read-out: pIC50 (mean ± SEM) GluN1-GluN2A (converted).
The mark [9] stands for this setting: CHO cells, 10 μM L-glutamate and 10 μM glycine, n.d. = 50% of inhibition could not be reached at the highest concentration used, read-out: pIC50 (mean ± SEM) GluN1-GluN2C (converted).

T1 sequence (Q13224 27-1484, other chains not shown): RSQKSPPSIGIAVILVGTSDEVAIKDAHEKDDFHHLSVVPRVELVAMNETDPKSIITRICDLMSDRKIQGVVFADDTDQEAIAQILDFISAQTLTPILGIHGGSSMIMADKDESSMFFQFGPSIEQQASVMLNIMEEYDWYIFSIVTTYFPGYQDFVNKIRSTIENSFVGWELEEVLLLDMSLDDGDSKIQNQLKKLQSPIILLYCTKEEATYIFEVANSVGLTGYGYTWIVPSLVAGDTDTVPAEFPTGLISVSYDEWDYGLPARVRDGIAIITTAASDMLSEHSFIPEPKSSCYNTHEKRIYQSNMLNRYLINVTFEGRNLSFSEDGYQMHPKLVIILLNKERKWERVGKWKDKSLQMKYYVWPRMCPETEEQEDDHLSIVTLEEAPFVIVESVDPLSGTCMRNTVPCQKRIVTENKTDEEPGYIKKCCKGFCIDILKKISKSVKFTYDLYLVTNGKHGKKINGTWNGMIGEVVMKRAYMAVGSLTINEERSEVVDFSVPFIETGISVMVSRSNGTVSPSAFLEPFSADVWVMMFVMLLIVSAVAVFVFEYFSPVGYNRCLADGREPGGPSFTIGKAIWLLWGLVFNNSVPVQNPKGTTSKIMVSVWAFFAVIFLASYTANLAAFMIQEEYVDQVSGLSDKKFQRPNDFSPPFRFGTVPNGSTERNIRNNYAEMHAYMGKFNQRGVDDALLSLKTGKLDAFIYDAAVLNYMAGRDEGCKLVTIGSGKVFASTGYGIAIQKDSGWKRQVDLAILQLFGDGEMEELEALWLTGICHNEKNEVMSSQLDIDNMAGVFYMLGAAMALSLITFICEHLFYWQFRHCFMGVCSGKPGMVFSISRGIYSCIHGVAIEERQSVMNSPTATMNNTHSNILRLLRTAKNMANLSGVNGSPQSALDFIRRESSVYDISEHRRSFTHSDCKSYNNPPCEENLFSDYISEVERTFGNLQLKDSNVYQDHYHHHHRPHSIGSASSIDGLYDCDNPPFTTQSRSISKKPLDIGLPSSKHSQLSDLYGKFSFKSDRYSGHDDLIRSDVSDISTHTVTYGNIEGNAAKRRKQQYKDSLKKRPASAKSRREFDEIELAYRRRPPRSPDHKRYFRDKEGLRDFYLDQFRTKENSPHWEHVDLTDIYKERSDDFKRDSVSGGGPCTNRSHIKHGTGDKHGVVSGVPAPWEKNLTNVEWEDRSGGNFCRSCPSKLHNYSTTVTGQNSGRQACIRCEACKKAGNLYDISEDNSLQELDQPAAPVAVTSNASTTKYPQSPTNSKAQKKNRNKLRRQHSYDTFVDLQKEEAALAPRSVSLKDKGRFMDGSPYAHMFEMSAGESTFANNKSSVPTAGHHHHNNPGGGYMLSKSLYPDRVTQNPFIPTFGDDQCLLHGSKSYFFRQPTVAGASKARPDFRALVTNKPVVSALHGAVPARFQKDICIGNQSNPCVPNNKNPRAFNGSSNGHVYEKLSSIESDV
Chain of GluN1-GluN2A NMDAR subtype (Q12879 23-1464, other chains not shown): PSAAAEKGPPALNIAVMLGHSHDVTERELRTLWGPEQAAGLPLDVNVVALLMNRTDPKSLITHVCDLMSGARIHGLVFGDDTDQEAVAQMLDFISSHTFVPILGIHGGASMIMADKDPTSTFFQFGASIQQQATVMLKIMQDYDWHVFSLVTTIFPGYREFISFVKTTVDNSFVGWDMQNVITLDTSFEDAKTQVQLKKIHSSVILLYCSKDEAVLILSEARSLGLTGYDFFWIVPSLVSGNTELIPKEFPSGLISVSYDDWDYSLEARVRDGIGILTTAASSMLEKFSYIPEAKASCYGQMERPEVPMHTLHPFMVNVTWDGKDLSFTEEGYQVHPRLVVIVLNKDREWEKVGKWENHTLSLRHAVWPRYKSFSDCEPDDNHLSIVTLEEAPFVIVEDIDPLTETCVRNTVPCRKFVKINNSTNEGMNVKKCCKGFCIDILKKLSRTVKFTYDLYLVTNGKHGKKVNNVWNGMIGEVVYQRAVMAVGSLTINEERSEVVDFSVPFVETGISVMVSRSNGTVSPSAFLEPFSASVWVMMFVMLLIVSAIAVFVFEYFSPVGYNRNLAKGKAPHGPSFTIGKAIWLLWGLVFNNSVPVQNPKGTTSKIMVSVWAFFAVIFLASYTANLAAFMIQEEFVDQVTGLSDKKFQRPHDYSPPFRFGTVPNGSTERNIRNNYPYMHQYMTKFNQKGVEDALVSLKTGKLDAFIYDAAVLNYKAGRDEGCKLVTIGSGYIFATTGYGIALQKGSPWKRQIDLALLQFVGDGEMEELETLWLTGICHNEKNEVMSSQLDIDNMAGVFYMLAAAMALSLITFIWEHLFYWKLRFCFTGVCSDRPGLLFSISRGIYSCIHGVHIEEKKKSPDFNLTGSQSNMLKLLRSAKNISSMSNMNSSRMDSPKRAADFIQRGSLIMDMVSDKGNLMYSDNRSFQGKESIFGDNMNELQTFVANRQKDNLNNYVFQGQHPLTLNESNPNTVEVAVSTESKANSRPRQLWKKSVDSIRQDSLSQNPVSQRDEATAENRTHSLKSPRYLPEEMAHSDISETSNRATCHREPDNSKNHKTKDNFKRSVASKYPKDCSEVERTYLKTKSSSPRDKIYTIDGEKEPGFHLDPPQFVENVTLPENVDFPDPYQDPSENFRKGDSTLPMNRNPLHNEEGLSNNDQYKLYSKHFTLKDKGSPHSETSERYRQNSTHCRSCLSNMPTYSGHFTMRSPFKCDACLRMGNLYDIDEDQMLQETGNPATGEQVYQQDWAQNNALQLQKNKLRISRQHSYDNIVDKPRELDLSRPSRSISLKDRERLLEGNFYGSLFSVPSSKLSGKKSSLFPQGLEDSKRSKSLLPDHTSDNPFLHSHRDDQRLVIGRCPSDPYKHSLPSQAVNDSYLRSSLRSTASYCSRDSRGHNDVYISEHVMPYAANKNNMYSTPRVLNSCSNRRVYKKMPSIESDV
Chain of GluN1-GluN2C NMDAR subtype (Q14957 20-1233, other chains not shown): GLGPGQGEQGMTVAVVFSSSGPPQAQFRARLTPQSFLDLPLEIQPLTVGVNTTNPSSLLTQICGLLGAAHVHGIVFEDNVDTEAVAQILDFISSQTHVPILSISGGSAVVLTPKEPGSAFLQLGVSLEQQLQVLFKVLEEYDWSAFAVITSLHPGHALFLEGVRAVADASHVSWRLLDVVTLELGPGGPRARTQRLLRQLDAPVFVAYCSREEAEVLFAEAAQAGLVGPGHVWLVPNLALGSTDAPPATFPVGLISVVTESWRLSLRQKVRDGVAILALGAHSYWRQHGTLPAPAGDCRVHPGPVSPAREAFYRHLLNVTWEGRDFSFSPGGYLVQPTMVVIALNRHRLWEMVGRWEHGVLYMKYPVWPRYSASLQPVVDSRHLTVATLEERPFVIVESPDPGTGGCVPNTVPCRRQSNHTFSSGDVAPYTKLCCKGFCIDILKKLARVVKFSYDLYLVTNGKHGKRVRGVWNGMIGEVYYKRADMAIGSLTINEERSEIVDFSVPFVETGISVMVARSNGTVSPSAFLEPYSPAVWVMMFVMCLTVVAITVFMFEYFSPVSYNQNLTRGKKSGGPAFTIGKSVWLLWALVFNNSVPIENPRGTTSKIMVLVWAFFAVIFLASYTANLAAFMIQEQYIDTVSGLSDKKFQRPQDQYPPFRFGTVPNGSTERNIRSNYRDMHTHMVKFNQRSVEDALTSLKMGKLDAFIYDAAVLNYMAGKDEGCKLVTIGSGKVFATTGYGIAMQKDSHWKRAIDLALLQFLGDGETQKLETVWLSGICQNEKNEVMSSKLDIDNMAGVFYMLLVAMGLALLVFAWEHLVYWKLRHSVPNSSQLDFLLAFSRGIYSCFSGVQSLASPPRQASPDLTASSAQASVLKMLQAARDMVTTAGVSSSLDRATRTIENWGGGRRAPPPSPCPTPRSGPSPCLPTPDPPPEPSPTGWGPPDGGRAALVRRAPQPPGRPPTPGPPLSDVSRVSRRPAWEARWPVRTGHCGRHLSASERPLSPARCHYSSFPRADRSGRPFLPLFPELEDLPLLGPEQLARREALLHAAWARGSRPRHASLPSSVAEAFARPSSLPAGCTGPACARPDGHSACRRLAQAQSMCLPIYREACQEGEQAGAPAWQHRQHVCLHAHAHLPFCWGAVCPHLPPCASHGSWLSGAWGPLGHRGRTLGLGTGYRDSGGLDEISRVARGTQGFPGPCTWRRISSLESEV

For the compound `COc1ccc2c(c1)[C@]13CCCC[C@@H]1[C@H](C2)N(C)CC3` [dextromethorphan, reference compound], the “pIC50 (mean ± SEM) GluN1-GluN2B” value in assay [1] (setting [5]) came out at 4.8 ± 0.037. Further, the “pIC50 (mean ± SEM) GluN1-GluN2D” value in assay [2] (setting [5]) was determined as 4.6 ± 0.12. The “pIC50 (mean ± SEM) GluN1-GluN2A” value in assay [3] (setting [5]) came to 4.3 ± 0.029. Besides, in assay [4] (setting [5]), the “pIC50 (mean ± SEM) GluN1-GluN2C” value is 5.2 ± 0.057.

Consider `CC[C@H](O)C(C[C@H](C)N(C)C)(c1ccccc1)c1ccccc1` [(3S,6S)-ML, (3S,6S)-6-(dimethylamino)-4,4-diphenylheptan-3-ol], for which the “pIC50 (mean ± SEM) GluN1-GluN2B” value in assay [1] (setting [5]) turned out to be 4.0 ± 0.077. The “pIC50 (mean ± SEM) GluN1-GluN2D” value in assay [2] (setting [5]) was 4.2 ± 0.16. Moreover, in assay [3] (setting [5]), the “pIC50 (mean ± SEM) GluN1-GluN2A” value was determined as 4.1 ± 0.034. Also, the “pIC50 (mean ± SEM) GluN1-GluN2C” value in assay [4] (setting [5]) was 4.1 ± 0.056.

For the compound `CCC1=[N+](C)[C@@H](C)CC1(c1ccccc1)c1ccccc1` [(S)-EDDP, 2-Ethyl-1,5-dimethyl-3,3-diphenyl-3,4-dihydro-5H-pyrrolium chloride], the IC50 in assay [1], in assay [2], in assay [3] and in assay [4] was greater than 100 µM each time.

As for `CC[C@@H](O)C(C[C@@H](C)N(C)C)(c1ccccc1)c1ccccc1` [(3R,6R)-ML, (3R,6R)-6-(dimethylamino)-4,4-diphenylheptan-3-ol], the “pIC50 (mean ± SEM) GluN1-GluN2B” value in assay [1] (setting [5]) is recorded as 4.0 ± 0.12. Moreover, the “pIC50 (mean ± SEM) GluN1-GluN2D” value in assay [2] (setting [5]) was 4.3 ± 0.12. Also, in assay [3] (setting [5]), the “pIC50 (mean ± SEM) GluN1-GluN2A” value worked out at 4.5 ± 0.085. Further, in assay [4] (setting [5]), the “pIC50 (mean ± SEM) GluN1-GluN2C” value turned out to be 4.1 ± 0.062.

As to `CNC1(c2ccccc2Cl)CCCCC1=O` (racemic) [(±)-ketamine, reference compound], the “pIC50 (mean ± SEM) GluN1-GluN2B” value in assay [1] (setting [5]) worked out at 5.2 ± 0.037. Moreover, the “pIC50 (mean ± SEM) GluN1-GluN2D” value in assay [2] (setting [5]) came out at 5.0 ± 0.087. The “pIC50 (mean ± SEM) GluN1-GluN2A” value in assay [3] (setting [5]) turned out to be 4.6 ± 0.028. Besides, the “pIC50 (mean ± SEM) GluN1-GluN2C” value in assay [4] (setting [5]) was determined as 5.4 ± 0.069.

For `C[C@@H](CC(C(=O)O)(c1ccccc1)c1ccccc1)N(C)C` [(S)-DDVA, 4-(Dimethylamino)-2,2-diphenylpentanoic acid], the IC50 in assay [1] (setting [6]), in assay [2] (setting [7]), in assay [3] (setting [8]) and in assay [4] (setting [9]) was greater than 100 µM in each case.

On to `C[C@H]1CC(c2ccccc2)(c2ccccc2)C(=O)N1C` [(S)-DDPO, 1,5-Dimethyl-3,3-diphenylpyrrolidin-2-one], for which the IC50 in assay [1] (setting [6]), in assay [2] (setting [7]), in assay [3] (setting [8]) and in assay [4] (setting [9]) was greater than 100 µM throughout.

Turning to `CCC1=N[C@@H](C)CC1(c1ccccc1)c1ccccc1` [(S)-EMDP, 5-Ethyl-2-methyl-4,4-diphenyl-3,4-dihydro-2H-pyrrole], the IC50 in assay [1] (setting [6]), in assay [2] (setting [7]) and in assay [4] (setting [9]) was greater than 100 µM in each case.

These data come from publication PMC11912475 (Journal of Medicinal Chemistry, 2025).
